≈ marks a conversion by molar mass, not a printed value. Where two headings read alike, the source gives them in different places.
Tests used:
Micrococcus flavus = settings: M. flavus; 0.15 nmol per well; 30°C overnight
Protocol: Agar well diffusion assay against Micrococcus flavus was performed as described previously ([van Heel et al., 2013]). 0.15 nmol of each sample was added to each well. The agar plate was incubated at 30°C overnight, after which the zone of inhibition was measured.
(§1) M. flavus was used as the indicator strain for the agar well diffusion assay, and 0.15 nmol of each sample was added to each well (Figure 3). […] Antimicrobial activity of all compounds was tested by growth inhibition assays against two clinically relevant Gram-positive pathogens, i.e., methicillin resistant S. aureus and vancomycin resistant E. faecium, as well as L. monocytogenes, and L. lactis. […] For this experiment, an activity test was performed against the NSR producing strain L. lactis NZ9000 (pNSR).

[1] = tested on: L. lactis NZ9000 (pEmpty); settings: for MIC value, L. lactis NZ9000 (pEmpty): broth microdilution (Wiegand et al. 2008), samples in 0.05% acetic acid, strain with empty plasmid
Protocol: (§2) All samples were resuspended in 0.05% aqueous acetic acid solution and the peptide amount was quantified by HPLC according to Schmitt et al. ([Schmitt et al., 2019]). The indicator strains MW2-MRSA, Enterococcus faecium, Listeria monocytogenes, and Lactococcus lactis were first streaked on GM17 plate and cultured overnight. The peptide samples were diluted with 0.05% acetic acid to a concentration of 40–320 μM (depending on the estimated activity of the peptide and the strain tested). The MIC value test was performed according to [Wiegand et al. (2008)].
as §1

[2] = tested on: Enterococcus faecium LMG 16003 (vancomycin resistant, VRE)
Protocol: as §2, §1

[3] = tested on: MW2-MRSA (Staphylococcus aureus MW2, methicillin resistant)
Protocol: as §2, §1

[4] = tested on: Listeria monocytogenes LMG 10470
Protocol: as §2, §1

L. lactis NZ9000 (pNSR) = settings: for MIC against NZ9000 with vs without NSR production: L. lactis NZ9000 (pNSR) vs NZ9000 (pEmpty); for MIC value, L. lactis NZ9000 (pNSR): broth microdilution (Wiegand et al. 2008), strain expressing nisin resistance protein NSR
Protocol: as §2, §1

[5] = MW2- ( MW2, methicillin resistant)
[6] = broth microdilution (Wiegand et al. 2008), samples in 0.05% acetic acid, quantified by HPLC
[7] = ratio of MICs vs nisin ABC + O6

Row | SMILES | Antimicrobial activity (zone of inhibition) in agar well diffusion assay (Micrococcus flavus) | MIC value, L. lactis NZ9000 (pEmpty) [1] | MIC value, E. faecium ([2]; LMG 16003) | MIC value, MW2-MRSA [3, 5] | MIC value, L. monocytogenes ([4]; LMG 10470) | MIC value, E. faecium [2, 6] | Decrease of antimicrobial activity compared to full nisin, E. faecium ([2]; ratio of MICs vs nisin) | Increase of antimicrobial activity compared to nisin ABC, E. faecium ([2]; ratio of MICs vs nisin ABC) | Increase of antimicrobial activity compared to nisin ABC + O6, E. faecium [2, 7] | Increase of antimicrobial activity compared to nisin ABC, L. lactis ([1]; ratio of MICs vs nisin ABC) | Increase of antimicrobial activity compared to nisin ABC + O6, L. lactis [1, 7] | MIC value, MW2-MRSA [3, 6] | MIC against NZ9000 with vs without NSR production (L. lactis NZ9000 (pNSR)) | MIC value, L. lactis NZ9000 (pNSR) (L. lactis NZ9000 (pNSR)) | MIC value, L. monocytogenes [4, 6] | Decrease of antimicrobial activity compared to full nisin, L. monocytogenes ([4]; ratio of MICs vs nisin) | Increase of antimicrobial activity compared to nisin ABC, L. monocytogenes ([4]; ratio of MICs vs nisin ABC) | Increase of antimicrobial activity compared to nisin ABC + O6, L. monocytogenes [4, 7]
1 | C=C1NC(=O)[C@H]([C@@H](C)CC)NC(=O)[C@H](NC(=O)/C(=C/C)NC(=O)[C@@H](N)[C@@H](C)CC)CSC[C@@H](C(=O)N[C@H]2C(=O)N3CCC[C@H]3C(=O)NCC(=O)N[C@H](C(=O)N[C@@H](CCCCN)C(=O)NCCCn3cc(CCC(=O)N4[C@H](C(=O)N5[C@H](C(=O)N6[C@H](C(=O)N7[C@H](C(=O)N8[C@H](C(=O)N9[C@H](C(=O)N[C@@H](CCCCN)C(=O)N[C@@H](CCCCN)C(=O)N[C@@H](CCCCN)C(=O)O)C[C@@H]%10CCCC[C@@H]%109)C[C@@H]9CCCC[C@@H]98)C[C@@H]8CCCC[C@@H]87)C[C@@H]7CCCC[C@@H]76)C[C@@H]6CCCC[C@@H]65)C[C@@H]5CCCC[C@@H]54)nn3)CS[C@H]2C)NC(=O)[C@H](CC(C)C)NC1=O [Nisin AB + O6K3] | the only active one | 10 μM |  |  |  |  |  |  |  |  |  |  |  |  |  |  |  | 
2 | C=C1NC(=O)[C@H]([C@@H](C)CC)NC(=O)[C@H](NC(=O)/C(=C/C)NC(=O)[C@@H](N)[C@@H](C)CC)CSC[C@@H](C(=O)N[C@H]2C(=O)N3CCC[C@H]3C(=O)NCC(=O)N[C@H](C(=O)N[C@@H](CCCCN)C(=O)O)CS[C@H]2C)NC(=O)[C@H](CC(C)C)NC1=O [Nisin AB, reference compound] | not active alone | >40 μM | 160 µM (≈ 184 µg/mL) | >320 µM | >320 µM |  |  |  |  |  |  |  |  |  |  |  |  | 
3 | C=C1NC(=O)[C@H]([C@@H](C)CC)NC(=O)[C@H](NC(=O)/C(=C/C)NC(=O)[C@@H](N)[C@@H](C)CC)CSC[C@@H](C(=O)N[C@H]2C(=O)N3CCC[C@H]3C(=O)NCC(=O)N[C@H](C(=O)N[C@@H](CCCCN)C(=O)N[C@H]3C(=O)NCC(=O)N[C@@H](C)C(=O)N[C@@H](CC(C)C)C(=O)N[C@@H](CCSC)C(=O)NCC(=O)N[C@H](C(=O)N[C@@H](CC(N)=O)C(=O)NCCCn4cc(CCC(=O)N5[C@H](C(=O)N6[C@H](C(=O)N7[C@H](C(=O)N[C@@H](CCCCN)C(=O)N[C@@H](CCCCN)C(=O)N[C@@H](CCCCN)C(=O)O)C[C@@H]8CCCC[C@@H]87)C[C@@H]7CCCC[C@@H]76)C[C@@H]6CCCC[C@@H]65)nn4)CS[C@H]3C)CS[C@H]2C)NC(=O)[C@H](CC(C)C)NC1=O [Nisin ABC + O3K3] | considerably higher than that of nisin ABC | 2.5 μM | 40 µM | 80 µM | 80 µM |  |  |  |  |  |  |  |  |  |  |  |  | 
4 | C=C1NC(=O)[C@H]([C@@H](C)CC)NC(=O)[C@H](NC(=O)/C(=C/C)NC(=O)[C@@H](N)[C@@H](C)CC)CSC[C@@H](C(=O)N[C@H]2C(=O)N3CCC[C@H]3C(=O)NCC(=O)N[C@H](C(=O)N[C@@H](CCCCN)C(=O)N[C@H]3C(=O)NCC(=O)N[C@@H](C)C(=O)N[C@@H](CC(C)C)C(=O)N[C@@H](CCSC)C(=O)NCC(=O)N[C@H](C(=O)N[C@@H](CC(N)=O)C(=O)NCCCn4cc(CCC(=O)N5[C@H](C(=O)N6[C@H](C(=O)N7[C@H](C(=O)N8[C@H](C(=O)N9[C@H](C(=O)N%10[C@H](C(=O)N[C@@H](CCCCN)C(=O)N[C@@H](CCCCN)C(=O)N[C@@H](CCCCN)C(=O)O)C[C@@H]%11CCCC[C@@H]%11%10)C[C@@H]%10CCCC[C@@H]%109)C[C@@H]9CCCC[C@@H]98)C[C@@H]8CCCC[C@@H]87)C[C@@H]7CCCC[C@@H]76)C[C@@H]6CCCC[C@@H]65)nn4)CS[C@H]3C)CS[C@H]2C)NC(=O)[C@H](CC(C)C)NC1=O [Nisin ABC + O6K3] |  | 2.5 μM |  |  |  | 2.5 µM | 8 fold | 16 fold | twice | 2 fold | twice | 80 µM | identical MICs | 2.5 μM | 10 µM | 4 fold | 4 fold | twice
5 | C=C1NC(=O)[C@H]([C@@H](C)CC)NC(=O)[C@H](NC(=O)/C(=C/C)NC(=O)[C@@H](N)[C@@H](C)CC)CSC[C@@H](C(=O)N[C@H]2C(=O)N3CCC[C@H]3C(=O)NCC(=O)N[C@H](C(=O)N[C@@H](CCCCN)C(=O)N[C@H]3C(=O)NCC(=O)N[C@@H](C)C(=O)N[C@@H](CC(C)C)C(=O)N[C@@H](CCSC)C(=O)NCC(=O)N[C@H](C(=O)N[C@@H](CC(N)=O)C(=O)NCCCn4cc(CCC(=O)N5[C@H](C(=O)N6[C@H](C(=O)N7[C@H](C(=O)N8[C@H](C(=O)N9[C@H](C(=O)N%10[C@H](C(=O)O)C[C@@H]%11CCCC[C@@H]%11%10)C[C@@H]%10CCCC[C@@H]%109)C[C@@H]9CCCC[C@@H]98)C[C@@H]8CCCC[C@@H]87)C[C@@H]7CCCC[C@@H]76)C[C@@H]6CCCC[C@@H]65)nn4)CS[C@H]3C)CS[C@H]2C)NC(=O)[C@H](CC(C)C)NC1=O [Nisin ABC + O6] |  | 5.0 μM | 5 µM | 80 µM | 20 µM |  |  |  |  |  |  |  | identical MICs | 5.0 μM |  |  |  | 
